Source: article PMC10023787, “Trio-pharmacophore DNA-encoded chemical library for simultaneous selection of fragments and linkers” (Nature Communications, 2023)
Read-outs that look alike come from different tables or passages of the source. Blank lines part the entries; values can stand above or below the molecule they belong to.

Assays:
MMP-2 = target: T1, MMP-2 (Homo sapiens, UniProt P08253); assay: MMP-2 inhibition assay (fluorogenic peptide substrate); assay type: biochemical
T1 construct: purchased Sino Biological 10082-HNAH
T1 sequence (P08253 110-660): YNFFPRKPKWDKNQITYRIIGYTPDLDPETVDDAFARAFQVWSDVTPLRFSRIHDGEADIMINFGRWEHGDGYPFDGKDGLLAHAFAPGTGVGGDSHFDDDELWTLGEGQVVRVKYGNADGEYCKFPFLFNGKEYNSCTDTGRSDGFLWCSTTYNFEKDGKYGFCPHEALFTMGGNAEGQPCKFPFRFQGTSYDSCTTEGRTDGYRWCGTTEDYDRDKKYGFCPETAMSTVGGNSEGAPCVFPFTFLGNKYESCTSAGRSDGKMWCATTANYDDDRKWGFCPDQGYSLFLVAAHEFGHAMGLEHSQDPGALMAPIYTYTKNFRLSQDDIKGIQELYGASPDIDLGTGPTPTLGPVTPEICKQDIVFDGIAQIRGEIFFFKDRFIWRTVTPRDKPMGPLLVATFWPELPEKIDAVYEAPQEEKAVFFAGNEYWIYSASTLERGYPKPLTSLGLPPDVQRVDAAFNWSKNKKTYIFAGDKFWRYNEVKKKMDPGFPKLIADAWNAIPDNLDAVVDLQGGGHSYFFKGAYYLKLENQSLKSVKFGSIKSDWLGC
Procedure, shortened: (§1)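 Human proMMP-2 and proMMP-9 were activated with 1 mM APMA for 2 h at 37 °C, then used at 6.5 nM (MMP-2) or 10 nM (MMP-9) final in Tris/NaCl/CaCl2/Brij 35 buffer, pH 7.5. After 30 min preincubation with compound at RT, 25 μM FRET peptide substrate was added and fluorescence (ex 280/em 360 nm) followed for 30 min. IC50 came from logistic fits of Vmax.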

MMP-9 = target: T2, MMP-9 (Homo sapiens, UniProt P14780); assay: MMP-9 inhibition assay (fluorogenic peptide substrate); assay type: biochemical; set-up: remaining enzyme activity (% of control): scale not given here
T2 construct: purchased Sino Biological 10327-HNAH
T2 sequence (P14780 107-707 limits assumed): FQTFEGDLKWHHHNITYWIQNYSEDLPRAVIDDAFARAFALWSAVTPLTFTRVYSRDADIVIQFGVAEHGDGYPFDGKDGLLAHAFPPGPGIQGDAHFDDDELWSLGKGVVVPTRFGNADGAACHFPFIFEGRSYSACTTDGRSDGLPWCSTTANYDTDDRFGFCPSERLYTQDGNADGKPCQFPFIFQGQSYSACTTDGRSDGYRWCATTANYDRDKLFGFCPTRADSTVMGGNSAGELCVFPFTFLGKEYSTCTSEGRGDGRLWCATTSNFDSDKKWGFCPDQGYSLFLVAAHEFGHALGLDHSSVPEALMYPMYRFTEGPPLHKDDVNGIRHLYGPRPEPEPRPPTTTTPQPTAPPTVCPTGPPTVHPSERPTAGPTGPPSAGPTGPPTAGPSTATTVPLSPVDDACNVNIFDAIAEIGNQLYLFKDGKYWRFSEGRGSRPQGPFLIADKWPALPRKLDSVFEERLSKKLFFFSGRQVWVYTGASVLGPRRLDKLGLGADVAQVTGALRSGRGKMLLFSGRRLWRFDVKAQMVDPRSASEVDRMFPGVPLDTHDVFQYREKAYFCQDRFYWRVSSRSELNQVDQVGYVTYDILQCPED
Procedure, shortened: as §1

[1] = MMP-2; concentration 1219.00 µM
[2] = mean ± SE; n.d: not detected; Fig. 5d unit inferred, µM; read-out: IC50
[3] = mean ± SE; n.d: not detected; Fig. 5e prints no unit, µM; read-out: IC50
[4] = Figure 5d; fragment combination joined by linker; n.d: not detected; read-out: MMP2 IC50
[5] = Figure 5d; fragment combination joined by linker; n.d: not detected; read-out: MMP9 IC50

SMILES: O=C(CCC(=O)NCc1c[nH]nn1)NCCCCCCCCNC(=O)Cn1cnc2c(oc3ccccc32)c1=O [182+787 Linker 4]
remaining activity (%) (MMP-2; MMP-2, concentration 0.0156 µM): 85.89
remaining activity (%) (MMP-2; MMP-2, concentration 0.08 µM): 83.14
remaining activity (%) (MMP-2; MMP-2, concentration 0.39 µM): 79.52
remaining activity (%) (MMP-2; MMP-2; concentration 9.75 µM): 75.23
remaining activity (%) (MMP-2; MMP-2; concentration 48.76 µM): 75.41
remaining activity (%) (MMP-2; MMP-2; concentration 243.80 µM): 40.43
remaining activity (%) (MMP-2; [1]): 0.00
IC50 (MMP-2; [2]): 193 ± 24.2 µM
remaining enzyme activity (% of control) (MMP-9; MMP-9, concentration 0.08 µM): 91.89
remaining enzyme activity (% of control) (MMP-9; MMP-9, concentration 0.39 µM): 89.82
remaining enzyme activity (% of control) (MMP-9; MMP-9, concentration 1.95 µM): 91.34
remaining enzyme activity (% of control) (MMP-9; MMP-9, concentration 9.75 µM): 95.46
remaining enzyme activity (% of control) (MMP-9; MMP-9, concentration 48.76 µM): 62.79
remaining enzyme activity (% of control) (MMP-9; MMP-9, concentration 243.80 µM): 34.94
remaining enzyme activity (% of control) (MMP-9; MMP-9, concentration 1219.00 µM): 0.00
IC50 (MMP-9; [3]): 134 ± 39.6 µM

SMILES: Cn1c(O)nc2cc(C(=O)NCCCCC=CC(=O)CC(=O)NCCNC(=O)Cn3cnc4c(oc5ccccc54)c3=O)cnc21 [182_826 12]
IC50 (MMP-2; [4]): 62.3 µM
IC50 (MMP-9; [5]): 131 µM

SMILES: O=C(/C=C/CCCCNC(=O)c1cncc(O)c1)CC(=O)NCCNC(=O)Cn1cnc2c(oc3ccccc32)c1=O [182+828 Linker 12]
remaining activity at 0.0168 µM (MMP-2; MMP-2, concentration 0.0168 µM; read-out: Mean (MMP-2, Supplementary fig 16)): 102%
remaining activity at 0.08 µM (MMP-2; MMP-2, concentration 0.08 µM; read-out: Mean (MMP-2, Supplementary fig 16)): 100%
remaining activity at 0.42 µM (MMP-2; MMP-2, concentration 0.42 µM; read-out: Mean (MMP-2, Supplementary fig 16)): 98.9%
remaining activity at 2.1 µM (MMP-2; MMP-2, concentration 2.10 µM; read-out: Mean (MMP-2, Supplementary fig 16)): 113%
remaining activity at 10.52 µM (MMP-2; MMP-2, concentration 10.52 µM; read-out: Mean (MMP-2, Supplementary fig 16)): 85.5%
remaining activity at 52.6 µM (MMP-2; MMP-2, concentration 52.60 µM; read-out: Mean (MMP-2, Supplementary fig 16)): 48.1%
remaining activity at 263 µM (MMP-2; MMP-2, concentration 263.00 µM; read-out: Mean (MMP-2, Supplementary fig 16)): 6.96%
remaining activity at 1315 µM (MMP-2; MMP-2, concentration 1315.00 µM; read-out: Mean (MMP-2, Supplementary fig 16)): 0%
IC50 (MMP-2; [2]): 50.3 ± 11.1 µM
remaining activity at 0.0466 µM (MMP-9; MMP-9, concentration 0.0466 µM; read-out: Mean (MMP-9, Supplementary fig 16)): 97.3%
remaining activity at 0.23 µM (MMP-9; MMP-9, concentration 0.23 µM; read-out: Mean (MMP-9, Supplementary fig 16)): 81.8%
remaining activity at 1.17 µM (MMP-9; MMP-9, concentration 1.17 µM; read-out: Mean (MMP-9, Supplementary fig 16)): 81.4%
remaining activity at 5.83 µM (MMP-9; MMP-9, concentration 5.83 µM; read-out: Mean (MMP-9, Supplementary fig 16)): 70.8%
remaining activity at 29.14 µM (MMP-9; MMP-9, concentration 29.14 µM; read-out: Mean (MMP-9, Supplementary fig 16)): 63.8%
remaining activity at 145.72 µM (MMP-9; MMP-9, concentration 145.72 µM; read-out: Mean (MMP-9, Supplementary fig 16)): 15.2%
remaining activity at 728.6 µM (MMP-9; MMP-9, concentration 728.60 µM; read-out: Mean (MMP-9, Supplementary fig 16)): 0%
IC50 (MMP-9; [3]): 45.9 ± 24.2 µM

Other lines, results leading:

remaining activity (%) (MMP-2; MMP-2; concentration 0.0156 µM): 102.68
remaining activity (%) (MMP-2; MMP-2; concentration 0.08 µM): 100.17
remaining activity (%) (MMP-2; MMP-2; concentration 0.39 µM): 95.94
remaining activity (%) (MMP-2; MMP-2; concentration 1.95 µM): 99.37
remaining activity (%) (MMP-2; MMP-2; concentration 9.75 µM): 100.31
remaining activity (%) (MMP-2; MMP-2; concentration 48.76 µM): 87.56
remaining activity (%) (MMP-2; MMP-2; concentration 243.80 µM): 44.10
remaining activity (%) (MMP-2; [1]): 12.13
IC50 (MMP-2; [2]): 212 ± 15.9 µM
remaining enzyme activity (% of control) (MMP-9; MMP-9; concentration 0.08 µM): 97.75
remaining enzyme activity (% of control) (MMP-9; MMP-9; concentration 0.39 µM): 94.18
remaining enzyme activity (% of control) (MMP-9; MMP-9; concentration 1.95 µM): 90.34
remaining enzyme activity (% of control) (MMP-9; MMP-9; concentration 9.75 µM): 92.01
remaining enzyme activity (% of control) (MMP-9; MMP-9; concentration 48.76 µM): 87.31
remaining enzyme activity (% of control) (MMP-9; MMP-9; concentration 243.80 µM): 52.96
remaining enzyme activity (% of control) (MMP-9; MMP-9; concentration 1219.00 µM): 7.04
IC50 (MMP-9; [3]): 261 ± 31.3 µM
SMILES: Cc1cc(=O)[nH]c(-n2nc(C)c(CCC(=O)NCCCCCCCCNC(=O)c3cncc(O)c3)c2C)n1 [693+828 Linker 4]

remaining activity (%) (MMP-2; MMP-2, concentration 0.12 µM): 92.61
remaining activity (%) (MMP-2; MMP-2, concentration 0.49 µM): 95.31
remaining activity (%) (MMP-2; MMP-2, concentration 1.95 µM): 84.32
remaining activity (%) (MMP-2; MMP-2, concentration 7.81 µM): 92.35
remaining activity (%) (MMP-2; MMP-2, concentration 31.25 µM): 84.58
remaining activity (%) (MMP-2; MMP-2, concentration 125.00 µM): 82.25
remaining activity (%) (MMP-2; MMP-2, concentration 500.00 µM): 42.45
IC50 (MMP-2; [2]): 439 ± 56.5 µM
remaining enzyme activity (% of control) (MMP-9; MMP-9, concentration 0.13 µM): 96.35
remaining enzyme activity (% of control) (MMP-9; MMP-9, concentration 0.50 µM): 93.10
remaining enzyme activity (% of control) (MMP-9; MMP-9, concentration 2.01 µM): 95.02
remaining enzyme activity (% of control) (MMP-9; MMP-9, concentration 8.03 µM): 95.39
remaining enzyme activity (% of control) (MMP-9; MMP-9, concentration 128.50 µM): 75.89
remaining enzyme activity (% of control) (MMP-9; MMP-9, concentration 514.00 µM): 61.85
SMILES: Cn1c(O)nc2cc(C(=O)NCCCCCCCCNC(=O)Cn3cnc4c(oc5ccccc54)c3=O)cnc21 [182+826 Linker 4]

IC50 (MMP-2; [4]): 210 µM
IC50 (MMP-9; [5]): 58.9 µM
SMILES: Cc1cc(=O)[nH]c(-n2nc(C)c(CCC(=O)NCCNC(=O)CC(=O)/C=C/CCCCNC(=O)c3cnc4c(c3)nc(O)n4C)c2C)n1 [693_826 12]
